Experiments:
[1] = Liver microsomal stability; format: in vitro ADME, canine; conditions: compared to mice; data not shown
Excerpt: The liquid chromatography-mass spectrometry system utilized for these analyses consisted of a Dionex Ultimate 3000 RSLCnano High Performance Liquid Chromatography system and a Thermo Finnigan Quantum Ultras EMR mass spectrometer with an electrospray ionization source. Positive ionization mode was used for both LY5 and the internal standard, hesperetin. Plasma samples were collected and analyzed by the OSU James Comprehensive Cancer Center Pharmacoanalytical Shared Resource. Pharsight Phoenix WinNonlin software using non-compartmental analysis was used to generate PK parameters including maximum plasma concentration (Cmax), amount of time that drug is present at Cmax (Tmax), and total area under the curve (AUC). AUC all and AUC last were calculated by linear trapezoidal method of concentration-time curve up to the last measured point. AUC inf-obs was calculated by log-linear extrapolation of the terminal phase beyond the last collection time. Bioavailability (F) was calculated for IP and PO administration routes. Plasma stability and liver microsomal stability of LY5 were also assessed through this shared resource.

MG63.3 cells = assay: Ex vivo pulmonary metastasis assay (PuMA); format: cell-based, human; conditions: MG 63.3, 10 μM and 50 μM LY5, up to 21 days
Method: GFP-positive K7M2 and MG63.3 cells (3 x 10^5 MG63.3; 5 x 10^5 K7M2) were administered via tail vein injection into mice. Following humane euthanasia, the lungs were insufflated with a culture medium/agarose mixture to a constant hydrostatic pressure of 20 cm H2O and prepared for ex vivo culture as previously described. Lung sections were cultured in complete media containing LY5 (0, 0.1, 1, 10 or 50 μM) on sterile Gelfoam using 6 lung sections per treatment condition. Media was changed every 48 hrs and lung slices were imaged with a fluorescent microscope every 7 days for a total of 21 days.
MG63.3 and K7M2 cell lines were exposed to increasing concentrations of LY5 to determine the IC50 (A). Western blot analysis was performed to determine the dose and duration of LY5 exposure required to inhibit STAT3 phosphorylation (B-C). Serial imaging of fluorescently labeled MG63.3 and K7M2 cells was performed in ex vivo LY5 treated lung sections (D). Metastatic burden was quantified by evaluation of the percent tumor burden (mean normalized fluorescent area). Data are reported as the mean ± standard deviation. In MG 63.3 experiment, p < 0.0001 Kruskal-Wallis test, p < 0.05 10 μM vs control at days 7, 14, and 21, 10 μM vs 1 μM at days 7, 14, and 21, 50 μM vs control at days 7, 14, and 21, and 50 μM vs 10 μM at days 7, 14, and 21 post-test Dunn. […]

ES-7 cells = assay: Alamar Blue cell viability assay; format: cell-based; conditions: Homo sapiens, ES7; ES-7, 96 hours
Method: (§1) Sarcoma cell lines were seeded in 24-well plates in 1X RPMI medium containing 10% fetal bovine serum. Cells were then incubated with DMSO (control) or concentrations of LY5 ranging from 10 nM to 10 μM for 96 hrs. At the end of the incubation period, Alamar Blue (Invitrogen, Carlsbad, CA) was added to cells at one-tenth the volume of the cell culture medium and incubated for 3 hrs at 37° C in the dark. Fluorescence was then measured at an excitation/emissions wavelength of 570/590 nm and emission wavelength of 590 nm.
(§2) Fig 2 Biologic activity of LY5 in sarcoma cell lines. Dose response curves for LY5: RMS cell lines (RH30, RD, JR-1), ES cell lines (ES-3, ES-6, ES-7, ES-8), and an OS cell line (OS-17) were treated with LY5 (concentrations ranging from 10 nM to 10 μM) for 96 hours. Cell viability was determined using Alamar Blue staining. IC50 values are indicated for each cell line. Analyses were performed in triplicate and data are plotted as means ± standard deviation.

JR-1 cells = assay: Alamar Blue cell viability assay; format: cell-based; conditions: Homo sapiens; JR-1, 96 hours
Method: as §1, §2

RD cells = assay: Alamar Blue cell viability assay; format: cell-based; conditions: Homo sapiens, 96 hours
Method: as §1, §2

ES-3 cells = assay: Alamar Blue cell viability assay; format: cell-based; conditions: Homo sapiens; ES-3, 96 hours
Method: as §1, §2

OS-17 cells = assay: Alamar Blue cell viability assay; format: cell-based; conditions: Homo sapiens; OS-17, 96 hours
Method: as §1, §2

ES-8 cells = assay: Alamar Blue cell viability assay; format: cell-based; conditions: Homo sapiens, ES8; ES-8, 96 hours
Method: as §1, §2

RH30 cells = assay: Alamar Blue cell viability assay; format: cell-based; conditions: Homo sapiens; RH30, 96 hours
Method: as §1, §2

ES-6 cells = assay: Alamar Blue cell viability assay; format: cell-based; conditions: Homo sapiens; ES-6, 96 hours
Method: as §1, §2

[2] = test system: 96 human protein or lipid kinases; assay: KINOMESCAN binding profile
Method: To determine the specificity of STAT blockade, we asked whether LY5 affected the phosphorylation of other family members including STAT1, STAT2, STAT4, and STAT6 [30–32]. […] To further define any potential off-target effects, we profiled the direct (steric) or indirect (allosteric) binding of LY5 to the binding sites of 96 human protein or lipid kinases (KINOMESCAN, www.kinomescan.com).
Supplementary file pone.0181885.s001.pdf: S1 Fig Kinomescan results for LY5. […] At 5 μM LY5 (B), only interaction with PLK3 was identified, mapped S-score (35) = 0.01. (PDF) Click here for additional data file.

[3] = Toxicity / tolerability in mice; format: in vivo
Method: Single-dose toxicity studies in mice were performed to identify the maximum tolerated dose of LY5. Additionally, 30 ICR mice (Harlan Laboratories, Indianapolis, IN) were divided into 3 groups to be dosed with 5 mg/kg LY5 (2 mg/ml) by oral (PO), intraperitoneal (IP) or intravenous (IV) routes to establish oral bioavailability. Animals were euthanized and blood was collected at allocated time points (5, 10, 20, 30 and 60 minutes, 2, 4, 6, 8 and 24 hrs) after LY5 administration, plasma was separated by centrifugation and frozen immediately on dry ice. Samples were stored at -80° C prior to analysis.

NS(=O)(=O)c1cccc2c1C(=O)C=C(Nc1cccnc1)C2=O [LY5, 5,8-dioxo-6-(pyridin-3-ylamino)-5,8-dihydronaphthalene-1-sulfonamide]
stability when incubated with canine liver microsomes [1]: increased stability | percent tumor burden in PuMA (MG63.3 cells): significantly decreased | IC50 (ES-7 cells): 2150 nM | IC50 (JR-1 cells): 271 nM | IC50 (RD cells): 204 nM | IC50 (ES-3 cells): 3420 nM | IC50 (OS-17 cells): 1430 nM | IC50 (ES-8 cells): 2000 nM | IC50 (RH30 cells): 428 nM | IC50 (ES-6 cells): 5060 nM | binding to any of 96 kinases ([2]; 1 μM LY5): no binding | mapped S-score (35) ([2]; 1 μM LY5): 0 | mapped S-score (35) ([2]; 5 μM LY5): 0.01 | tolerable dosing [3]: 40 mg/kg BID | toxicity ([3]; doses received via IV, oral, or IP routes): No toxicity was noted

Reference: article PMC5531494, “Target specificity, in vivo pharmacokinetics, and efficacy of the putative STAT3 inhibitor LY5 in osteosarcoma, Ewing's sarcoma, and rhabdomyosarcoma” (PLoS ONE, 2017)
